Measured values reported in article PMC12681733, “Multifunctional kojic acid-tetrahydroisoquinoline hybrids: Synthesis, tyrosinase inhibition, and applications in the anti-browning of fresh-cut mushrooms” (Current Research in Food Science, 2025).

Assays:
tyrosinase [1] = details: ref Zhang et al., 2025; cited from earlier work
tyrosinase [2] = target: tyrosinase (Agaricus bisporus, UniProt C7FF04); experiment: Kinetic analysis (Lineweaver-Burk plots, L-DOPA); format: biochemical, mushroom
Description: Reaction rates were determined using different concentrations of compounds (1.25, 2.5, and 5 μM) and L-DOPA solutions (0.5, 1, 1.5, and 2 mM).

zebrafish embryos = experiment: Acute toxicity in zebrafish embryos (OECD FET No. 236); format: in vivo; details: 4c 25, 50, 100 μM; KA 100 μM; observed at 48 hpf
Description: The acute toxicity assay was conducted in accordance with the Guidelines of Organization for Economic Co-operation and Development (OECD) for the Testing of Chemicals, Fish Embryo Acute Toxicity (FET) Test, No. 236 ([OECD, 2013]). All zebrafish procedures in this study were approved by Anhui Medical University Experimental Animal Ethics Committee (Protocol No.: LLSC20241625). The zebrafish were maintained in accordance with the established protocols of the Zebrafish International Resource Center. Surviving zebrafish were humanely euthanized at the end of the study to prevent prolonged suffering. The euthanasia method involved immersion in a buffered solution of tricaine methanesulfonate at a concentration of 300 mg/L for at least 10 min, followed by confirmation of death through the cessation of gill movement and heartbeat. Carcasses were promptly frozen at −20 °C and disposed of through authorized biological waste channels.
Referring to published methods with certain modifications ([Qian et al., 2018]), 13–15 h post-fertilization (hpf) zebrafish embryos were placed in small dishes containing 5 mL of culture medium in this experiment. Different concentrations of 4c (25, 50, 100 μM) and KA (100 μM) were added to the dishes, respectively, and the experiments were repeated three times. […]

tyrosinase [3] = experiment: Fluorescence quenching of tyrosinase; format: binding
Description: Fluorescence intensity quantification was performed on a spectrofluorometer (Cary Eclipse) following a literature-established protocol ([Peng et al., 2021]), a tyrosinase solution (200 U/mL) was prepared in phosphate buffer (pH = 6.8). Incremental volumes of 4c solution at identical concentrations were added to the enzyme solution. With an excitation wavelength of 280 nm, an emission slit width of 5 nm, and the mixture was recorded in the 290–450 nm emission wavelength range.

tyrosinase [4] = experiment: ANS-binding fluorescence measurement; details: 4c from 0 μM to 50 μM
Description: An equal volume of ANS solution (80 μM) was added to the tyrosinase solution (400 U/mL). After thorough mixing, the mixture was left to stand at room temperature for 30 min. Subsequently, a specific amount of the ANS-labeled tyrosinase solution was extracted, vigorously shaken, and 4c was incrementally added dropwise to this mixture. The fluorescence spectrum of the mixture was scanned under conditions of an excitation wavelength of 390 nm, an emission slit width of 5 nm, and an emission wavelength range of 400–600 nm ([Lü et al., 2010]).

tyrosinase [5] = experiment: UV spectra measurement; format: binding; details: addition of 4c
Description: Following the reported methods ([Chen et al., 2022]), a 3 mL assay system was established by adding a solution of 4c (300 μM, 350 μL) and tyrosinase solution (200 U/mL, 400 μL) to 2250 μL of PBS at pH 6.8. Spectral measurements were carried out using a UV-1800 spectrophotometer with wavelength scanning from 200 to 400 nm. Three experimental controls were implemented: (1) PBS buffer as blank reference, (2) 4c solution in PBS without enzyme, and (3) enzyme solution in PBS without 4c. To ensure measurement reliability, all spectra were acquired in triplicate through independent scanning processes. Background corrections were systematically applied using corresponding control solutions for each experimental condition.

[6] = Stability evaluation (HPLC content); format: physicochemical
Description: The purpose of stability testing is to provide evidence on how the quality of an active substance varies with time under the influence of a variety of environmental factors such as temperature, humidity, and light. Compound 4c with the strongest activity was evaluated for its stability. 4c was first dissolved in acetonitrile to prepare a 100 mM stock solution. This stock solution was then diluted to a 10 mM working concentration using different pH buffer solutions (4.0, 7.0 and 9.0). The samples were aliquoted into sealed vials. These vials were placed at different temperatures (25 °C, 40 °C and 60 °C) under both light-exposed and light-protected conditions for stability testing. The content change of the compound was monitored at scheduled time intervals (0 h, 24 h and 72 h) using an HPLC method.

Escherichia coli = experiment: Antibacterial activity, plate counting; format: cell-based; details: for antibacterial rate against E. coli: KA and THIQ groups, Fig. 7A
Description: (§1) The antibacterial activity of 4c against Escherichia coli (E. coli) and Staphylococcus aureus (S. aureus) was evaluated using a modified plate counting method based on literature reports ([Ruan et al., 2024]). In this process, the strains were first activated on LB agar medium at 37 °C for 18 h. Subsequently, bacterial suspensions (1 × 10^8 CFU/mL) were prepared in fresh nutrient broth medium according to the 0.5 McFarland turbidity standard. These suspensions were then diluted to 1 × 10^5 CFU/mL for antibacterial testing. Various concentrations of 4c solutions were prepared and mixed with the 1 × 10^5 CFU/mL bacterial suspensions, with equal volumes of physiological saline added to the control group. The mixtures were incubated at 37 °C for 12 h, serially diluted, plated (100 μL) onto plate count agar medium, and incubated for 24 h at 37 °C for colony counting. Each experiment was conducted in triplicate, and the antibacterial rate was calculated using the following formula (2):(2) BacterialInhibitionrate(%)=(1−XS/X0)×100% where X0 represented the bacterial colony count of the control group post 24-h incubation, while XS denoted the average bacterial colony count of the sample group.

Staphylococcus aureus = experiment: Antibacterial activity, plate counting; format: cell-based; details: for antibacterial rate against S. aureus: KA and THIQ groups, Fig. 7A
Description: as §1

Botrytis cinerea = experiment: Antifungal activity, radial growth on PDA; format: cell-based; details: 4c at high concentrations (5, 15, 30 μg/mL tested), 72 h
Description: Fungal contamination is a major cause of food spoilage. To evaluate the antifungal potential of 4c, its efficacy against the common phytopathogen Botrytis cinerea (B. cinerea) was investigated ([Zhou et al., 2025]). The assay was performed as follows: B. cinerea was first cultivated on Potato Dextrose Agar (PDA) to ensure robust growth. Subsequently, 4c was prepared at various concentrations and incorporated into PDA to form a drug-containing medium. Fungal mycelia were then inoculated onto the center of both the treatment and control plates, with the latter containing an equal volume of physiological saline instead of the compound. All plates were incubated at 27 °C for 72 h. Following incubation, the colonial growth on each Petri dish was photographed, with particular attention to the mycelial morphology and expansion. The antifungal activity was quantified by measuring the radial growth of the fungus, and the inhibition rate was calculated according to formula (3):(3) FungalInhibitionrate(%)=(1−DS/D0)×100% where D0 is the growth size of the control group, DS is the growth size of the group containing the sample group.

fresh-cut mushrooms = experiment: Anti-browning study on fresh-cut mushrooms; set-up: species or system button mushrooms; details: 100 μM sprayed, 4 °C, 7-day storage; versus KA and control
Description: Fresh and clean mushrooms of appropriate size were purchased from the local supermarket and their surfaces were evenly trimmed. […] CIE Lab values (L∗, a∗, and b∗) were measured using a colorimeter (NR60CP) to monitor the color changes of the fresh-cut mushrooms ([Wang et al., 2023]). The browning progression on mushroom surfaces was monitored via daily photographic documentation. The anti-browning efficacy was quantified using the total color difference (ΔE), calculated according to formula (4):(4) ΔE=[(Lt∗−Linitial∗)^2+(at∗−ainitial∗)^2+(bt∗−binitial∗)^2]^0.5

[7] = plot of log[(F0−F)/F] against log[I]
[8] = 4c at high concentrations (5, 15, 30 μg/mL tested)

tyrosinase (Agaricus bisporus, UniProt C7FF04), sequence (C7FF04 1-392): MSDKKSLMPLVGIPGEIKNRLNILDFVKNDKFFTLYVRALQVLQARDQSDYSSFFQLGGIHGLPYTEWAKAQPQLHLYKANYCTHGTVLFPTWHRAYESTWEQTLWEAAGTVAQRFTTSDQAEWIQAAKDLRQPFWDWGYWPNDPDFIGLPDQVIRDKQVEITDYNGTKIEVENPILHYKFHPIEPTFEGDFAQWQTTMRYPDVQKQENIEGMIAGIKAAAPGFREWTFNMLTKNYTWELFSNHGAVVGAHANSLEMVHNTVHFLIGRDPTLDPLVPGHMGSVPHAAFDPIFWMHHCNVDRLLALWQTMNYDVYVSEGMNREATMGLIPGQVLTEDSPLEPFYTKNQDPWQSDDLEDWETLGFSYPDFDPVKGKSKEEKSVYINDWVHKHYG

Compound: Oc1ccccc1-c1nnc(S)o1 [Compound 2f, 5-(2-hydroxyphenyl)-1,3,4-oxadiazole-2-thiol]
- IC50 (tyrosinase [1]): 17.7 ± 0.21 µM

Compound: COc1ccc2c(c1)CCN(Cc1cc(=O)c(O)co1)C2 [Compound 4c]
- Ki (tyrosinase [2]; L-DOPA substrate, slope replot, read-out: inhibition constant Ki for free enzyme): 1.48 µM
- inhibition type (tyrosinase [2]; Lineweaver-Burk plots): mixed-type inhibitor
- acute toxicity in zebrafish embryos (zebrafish embryos): no significant toxic effects
- relative fluorescence intensity (tyrosinase [3]; 25 μM 4c): 52%
- fluorescence intensity of tyrosinase (tyrosinase [3]; 25 μM 4c, 146.61 without inhibitor, emission peak 354 nm): 76.92
- fluorescence quenching mechanism (tyrosinase [3]; Kq versus maximum dynamic quenching constant): static quenching
- Stern-Volmer quenching constant Ksv (tyrosinase [3]; Stern-Volmer plot): 43000 L/mol
- bimolecular quenching constant Kq (tyrosinase [3]; Stern-Volmer plot): 4.3 × 10^12 L mol^−1 S^−1
- apparent binding constant Ka (tyrosinase [3]; [7]): 15100 L/mol
- number of binding sites n (tyrosinase [3]; [7]): 1.11
- maximum fluorescence intensity of ANS-TYR (tyrosinase [4]): gradually increased
- characteristic absorption peak of tyrosinase at 280 nm (tyrosinase [5]): significant decrease
- content (stability testing) ([6]; 25℃, pH 4, 0 h): 97.01%
- content (stability testing) ([6]; 25℃, pH 4, 24 h): 98.10%
- content (stability testing) ([6]; 25℃, pH 4, 72 h): 98.32%
- content (stability testing) ([6]; 25℃, pH 7, 0 h): 98.63%
- content (stability testing) ([6]; 25℃, pH 7, 24 h): 97.48%
- content (stability testing) ([6]; 25℃, pH 7, 72 h): 98.03%
- content (stability testing) ([6]; 25℃, pH 9, 0 h): 97.43%
- content (stability testing) ([6]; 25℃, pH 9, 24 h): 97.48%
- content (stability testing) ([6]; 25℃, pH 9, 72 h): 97.59%
- content (stability testing) ([6]; 40℃, pH 4, 0 h): 97.02%
- content (stability testing) ([6]; 40℃, pH 4, 24 h): 97.50%
- content (stability testing) ([6]; 40℃, pH 4, 72 h): 97.41%
- content (stability testing) ([6]; 40℃, pH 7, 0 h): 97.56%
- content (stability testing) ([6]; 40℃, pH 7, 24 h): 96.04%
- content (stability testing) ([6]; 40℃, pH 7, 72 h): 97.75%
- content (stability testing) ([6]; 40℃, pH 9, 0 h): 96.51%
- content (stability testing) ([6]; 40℃, pH 9, 24 h): 95.00%
- content (stability testing) ([6]; 40℃, pH 9, 72 h): 96.12%
- content (stability testing) ([6]; 60℃, pH 7, 0 h): 96.64%
- content (stability testing) ([6]; 60℃, pH 7, 24 h): 96.84%
- content (stability testing) ([6]; 60℃, pH 7, 72 h): 96.62%
- content (stability testing) ([6]; 60℃, pH 9, 0 h): 96.61%
- content (stability testing) ([6]; 60℃, pH 9, 24 h): 96.04%
- content (stability testing) ([6]; 60℃, pH 9, 72 h): 96.26%
- content (stability testing) ([6]; Light, pH 7, 0 h): 96.64%
- content (stability testing) ([6]; Light, pH 7, 24 h): 96.84%
- content (stability testing) ([6]; Light, pH 7, 72 h): 96.62%
- content (stability testing) ([6]; Light, pH 9, 0 h): 96.61%
- content (stability testing) ([6]; Light, pH 9, 24 h): 96.04%
- content (stability testing) ([6]; Light, pH 9, 72 h): 96.26%
- retention rate ([6]; after 72 h, all pH (4.0, 7.0, 9.0) and temperatures (25, 40, 60 °C)): > 95%
- inhibition rate against E. coli (Escherichia coli; [8]): ~100%
- inhibition rate against S. aureus (Staphylococcus aureus; [8]): ~100%
- inhibition rate against B. cinerea (Botrytis cinerea): ~90%
- L∗ (lightness) of fresh-cut mushrooms (fresh-cut mushrooms): highest L∗ value
- total color difference ΔE of fresh-cut mushrooms (fresh-cut mushrooms): lowest ΔE value

Compound: O=c1cc(CO)occ1O [Kojic acid]
- acute toxicity in zebrafish embryos (zebrafish embryos): partial mortality
- antibacterial rate against E. coli (Escherichia coli): low antibacterial rates
- antibacterial rate against S. aureus (Staphylococcus aureus): low antibacterial rates

Compound: c1ccc2c(c1)CCNC2 [THIQ, tetrahydroisoquinoline]
- antibacterial rate against E. coli (Escherichia coli): low antibacterial rates
- antibacterial rate against S. aureus (Staphylococcus aureus): low antibacterial rates
